According to the supplement of paper PMC8837787:

Tested on: Saccharomyces cerevisiae ABC16-Green Monster
Experiment: growth inhibition at single dose (up to 150 µM), below the 70% cut-off for dose-response; higher = more potent
Conditions: 18 h; 30 °C; YPD
How it was run: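 Percent growth inhibition is the reported value. Drug-sensitive S. cerevisiae ABC16-Green Monster cultures in log phase (OD600 0.1–0.2), 200 µl per well in 96-well plates, received each library compound once at 150 µM in biological duplicates, with untreated cultures run alongside. Growth was followed by OD600 at 0 h and after 18 h at 30 °C. Dose-response was not done for compounds below 70% in both replicates.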

Structure (SMILES)	growth inhibition at single dose [%]
COC(=O)[C@@H](NC(=O)Nc1ccc(-c2nc3ccccc3s2)cc1)C(C)C	< 70
S=c1n(CN2CCN(c3ccccc3Cl)CC2)nc(-c2cccs2)n1Cc1ccccc1	< 70
CCC(=O)c1cn(S(=O)(=O)c2ccc(C)cc2)c2ccccc12	< 70
CCc1ccc(C(=O)Nc2cccc(NC(=O)c3ccccc3C)c2)cc1	< 70
Cc1ccccc1-n1c(SCC(=O)NC2CCCCC2)nc(O)cc1=O	< 70
COc1cc(NC(=O)COc2ccc3[nH]c4ccccc4c(=O)c3c2)c(OC)cc1Cl	< 70
Cc1ccc(S(=O)(=O)c2c(COC(=O)c3cccc(C)c3)c(-c3ccccc3)nn2C)cc1	< 70
COc1ccc(Cl)cc1NC(=O)CN(C)C(=O)c1cnn(-c2ccccc2)n1	< 70
CC(C)(C)OC(=O)N1CCC(Cn2nc(-c3cnc4ccccc4c3)c3c(N)ncnc32)CC1	< 70
CCCN(CCC)CC(O)COc1ccccc1C(=O)Nc1ccccc1 (configuration not stated)	< 70
CC1=Nc2ccc(Cl)cc2C(O)(c2ccc(C)cc2)N1CCN1CCCCC1 (configuration not stated)	< 70
CCOC(=O)c1cc(-c2csc(Nc3c(C)cc(C)cc3C)n2)on1	< 70
CC1CCN(Cc2ccc(NC(=O)c3cc4ccc5cccnc5c4[nH]3)cc2)CC1	< 70
CCOC(=O)c1c(C)nn(-c2ccc(NC(=O)c3cccs3)cc2)c1C	< 70
Oc1c2c(nc3cc(-c4ccccc4)nn13)CCCC2	< 70
CC(C)(C)NS(=O)(=O)c1cccc2c(N)cccc12	< 70
COc1ccc(OC)c(C2C3=C(CC(C)(C)CC3=O)N(c3ccc(Cl)c(Cl)c3)C3=C2C(=O)CC(C)(C)C3)c1	< 70
Cc1cccnc1NC(=O)c1cccc(OCc2c(C)noc2C)c1	< 70
C=CC12CCN(CC1)C(C(O)c1ccnc3ccc(OC)cc13)C2 (configuration not stated)	< 70

Structure (SMILES)	growth inhibition at single dose [%]
O=C1c2ccccc2-c2nnc(-c3ccc(Br)cc3)cc21	< 70
O=C(NCc1ccco1)C1CCN(S(=O)(=O)c2ccc(Br)cc2)CC1	< 70
COc1ccc(NC(=O)C2c3ccccc3C(=O)N(CC(C)C)C2c2cccs2)cc1 (configuration not stated)	< 70
N=c1c2ccccc2nnn1-c1cccc(C(F)(F)F)c1	< 70
O=C(NC1CCN(c2ccnc3ccccc23)C1)c1cccc(C(F)(F)F)c1 (configuration not stated)	< 70
COC(=O)c1ccc(F)cc1NS(=O)(=O)c1cccc(-c2cnn(Cc3ccccc3)c2)c1	< 70
CC(Oc1ccc2ccc(=O)oc2c1)C(=O)N1CCc2ccccc21 (configuration not stated)	< 70
O=C(Nc1cccc2ccccc12)N1CCN(c2ncccc2C(F)(F)F)CC1	< 70
Cc1nc(NCc2ccc(N3CCN(C)CC3)nc2)c2c(-c3ccccc3)csc2n1	< 70
FC(F)(F)c1cc(NCCc2ccccc2)nc(-c2ccccn2)n1	< 70
C[C@]12CC[C@H](O)C[C@H]1CCC1C2[C@H](O)C[C@]2(C)[C@@H](C3=CC(=O)OC3)CC[C@]12O (some centres not stated)	< 70
N#Cc1ccc(Cc2cnc(NC(=O)c3ccc4ncsc4c3)s2)cc1	< 70
COc1cc(C(=O)Nc2ccc(-c3nc4ccccc4[nH]3)cc2)cc(OC)c1OC	< 70
N=C(N)c1ccc(-c2cc(-c3ccccc3)on2)cc1	< 70
CCOc1ccccc1NC(C)C(=O)Nc1cc(C(F)(F)F)ccc1N1CCOCC1 (configuration not stated)	< 70
OC1=C2C(=Nc3ccccc3SC2c2ccc(Br)cc2)c2ccccc21 (configuration not stated)	< 70
Cc1cc(NCCN2CCCCC2)c2ccc3ccccc3c2n1	< 70
COC(=O)c1c(C)[nH]c(C2=NNC(=NC3CC3)SC2)c1C	< 70
